A word on the EC50: it is the concentration giving half of the maximal effect.

Data on 6 molecules can be found in ChEMBL document CHEMBL5576047, “Synthesis of a new 2-prenylated quinoline as potential drug for metabolic syndrome with pan-PPAR activity and anti-inflammatory effects” (Bioorg Med Chem Lett, 2024).

Common to all, as to assay type: cell-based
Test [1] addresses T1, Peroxisome proliferator-activated receptor gamma (Homo sapiens, UniProt P37231).
T1 sequence (P37231 whole entry): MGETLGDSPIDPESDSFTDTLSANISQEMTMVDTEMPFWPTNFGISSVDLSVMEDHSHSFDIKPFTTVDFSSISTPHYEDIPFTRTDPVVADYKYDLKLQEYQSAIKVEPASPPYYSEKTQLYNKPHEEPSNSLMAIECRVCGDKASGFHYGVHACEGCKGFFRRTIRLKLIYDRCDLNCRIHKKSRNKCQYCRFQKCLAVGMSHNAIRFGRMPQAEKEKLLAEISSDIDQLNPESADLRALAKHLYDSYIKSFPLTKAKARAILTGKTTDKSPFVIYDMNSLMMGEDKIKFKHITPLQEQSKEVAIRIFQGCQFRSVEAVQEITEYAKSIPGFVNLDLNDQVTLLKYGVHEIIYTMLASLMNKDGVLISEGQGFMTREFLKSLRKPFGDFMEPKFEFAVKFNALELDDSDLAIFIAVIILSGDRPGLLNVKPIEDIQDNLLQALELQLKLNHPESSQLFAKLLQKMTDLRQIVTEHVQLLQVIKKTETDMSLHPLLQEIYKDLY
In words: Agonist activity at GAL4-tagged human PPARgamma transfected in African green monkey COS7 cells assessed as transcriptional activation by measuring effective concentration incubated for 24 hrs by luciferase assay.

The target in test [2] is T2, Peroxisome proliferator-activated receptor alpha (Homo sapiens, UniProt Q07869).
T2 sequence (Q07869 whole entry): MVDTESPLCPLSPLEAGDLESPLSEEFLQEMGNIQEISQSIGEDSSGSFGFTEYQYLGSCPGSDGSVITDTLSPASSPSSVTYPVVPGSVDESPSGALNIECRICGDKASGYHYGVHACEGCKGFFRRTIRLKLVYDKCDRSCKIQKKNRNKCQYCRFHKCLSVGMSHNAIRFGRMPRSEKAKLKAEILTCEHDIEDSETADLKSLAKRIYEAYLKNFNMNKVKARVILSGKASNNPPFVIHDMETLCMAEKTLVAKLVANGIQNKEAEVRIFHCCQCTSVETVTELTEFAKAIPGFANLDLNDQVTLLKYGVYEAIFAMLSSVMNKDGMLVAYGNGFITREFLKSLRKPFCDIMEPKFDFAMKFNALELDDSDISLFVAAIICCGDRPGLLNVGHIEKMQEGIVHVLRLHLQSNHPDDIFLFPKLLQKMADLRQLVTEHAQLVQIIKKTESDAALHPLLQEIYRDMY
In words: Agonist activity at GAL4-tagged human PPARalpha transfected in African green monkey COS7 cells assessed as transcriptional activation by measuring effective concentration incubated for 24 hrs by luciferase assay.

Test [3] deals with T3, Peroxisome proliferator-activated receptor delta (Homo sapiens, UniProt Q03181).
T3 sequence (Q03181 whole entry): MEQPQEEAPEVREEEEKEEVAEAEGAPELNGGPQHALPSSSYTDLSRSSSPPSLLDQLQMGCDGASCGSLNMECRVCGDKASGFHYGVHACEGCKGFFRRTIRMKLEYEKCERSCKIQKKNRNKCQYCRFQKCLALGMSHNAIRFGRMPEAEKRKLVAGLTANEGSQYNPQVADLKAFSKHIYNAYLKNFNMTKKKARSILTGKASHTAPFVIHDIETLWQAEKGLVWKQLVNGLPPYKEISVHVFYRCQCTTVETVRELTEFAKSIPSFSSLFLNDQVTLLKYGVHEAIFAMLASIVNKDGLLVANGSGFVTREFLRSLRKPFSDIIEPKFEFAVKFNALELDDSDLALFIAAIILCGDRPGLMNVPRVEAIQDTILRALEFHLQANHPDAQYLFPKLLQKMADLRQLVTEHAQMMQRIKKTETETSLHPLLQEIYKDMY
As to the kind of experiment: Agonist activity at GAL4-tagged human PPARbeta/delta transfected in African green monkey COS7 cells assessed as transcriptional activation by measuring effective concentration incubated for 24 hrs by luciferase assay.

Turning to `CCOC(=O)/C(=C/CCC1(C)CCc2cc(OCc3ccccc3)ccc2O1)OCC(F)(F)F` (centres undefined), the EC50 result in test [1] (cos7) and in test [2] (cos7) was “Not Active” each time.

`CCOC(=O)CC/C(C)=C/CCC1(C)CCc2cc(OCc3ccccc3)ccc2O1` (centres undefined): the EC50 in test [1] (read-out: EC50) turned out to be 1590 nM; in test [2] (read-out: EC50), 2950 nM.

In the case of `CCOC(=O)CC/C(C)=C/CCc1ccc2cc(OCc3ccccc3)ccc2n1`, the figures for the EC50 in test [2] (read-out: EC50) and in test [3] were 3200 nM and 1510 nM, respectively.

Take `Cc1cc(SCc2sc(-c3ccc(C(F)(F)F)cc3)nc2C)ccc1OCC(=O)O` [GW501516]: the 50% effective concentration (EC50) entry in test [2] (cos7) is “Not Active”.

Turning to `Cc1cccc(Nc2cc(Cl)nc(SCC(=O)O)n2)c1C` [PIRINIXIC ACID], the concentration for a half-maximal effect (EC50) entry in test [1] (cos7) was “Not Active”.

Take `CN(CCOc1ccc(CC2SC(=O)NC2=O)cc1)c1ccccn1` (centres undefined) [ROSIGLITAZONE]: in test [2] (cos7), the EC50 result is “Not Active”.
